# Measured values from PubChem BioAssay (NCI).
#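 Dose response: 5 concentrations. Exposure: 48 h. Format: 96-well plates. Endpoint: linear interpolation; highest concentration if not reached. At the GI50, growth is halved. TGI is the concentration that stops growth completely.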
# Experiments:
# Assay in all cases: growth of human tumour cells (NCI), 48 h
# ACHN renal = system: ACHN renal
# SF-268 CNS = system: SF-268 CNS
# EKVX NSCLC = system: EKVX NSCLC
# NCI-H460 lung = system: NCI-H460 lung
# HCC-2998 colon = system: HCC-2998 colon
# RXF 393 renal = system: RXF 393 renal
# SN12C renal = system: SN12C renal
# MDA-MB-468 breast = system: MDA-MB-468 breast
# OVCAR-3 ovarian = system: OVCAR-3 ovarian
# MCF7 breast = system: MCF7 breast
# IGROV1 ovarian = system: IGROV1 ovarian
# MDA-MB-435 = system: MDA-MB-435
# OVCAR-4 ovarian = system: OVCAR-4 ovarian
# SF-295 CNS = system: SF-295 CNS
# UACC-257 melanoma = system: UACC-257 melanoma
# HOP-92 NSCLC = system: HOP-92 NSCLC
# T-47D breast = system: T-47D breast
# SR leukemia = system: SR leukemia
# SK-MEL-5 melanoma = system: SK-MEL-5 melanoma
# NCI-H23 lung = system: NCI-H23 lung
# PC-3 prostate = system: PC-3 prostate
# SK-OV-3 ovarian = system: SK-OV-3 ovarian
# 786-0 renal = system: 786-0 renal
# OVCAR-5 ovarian = system: OVCAR-5 ovarian
# HT29 colon = system: HT29 colon
# SW-620 colon = system: SW-620 colon
# M14 melanoma = system: M14 melanoma
# NCI/ADR-RES ovarian = system: NCI/ADR-RES ovarian
# TK-10 renal = system: TK-10 renal
# HCT-116 colon = system: HCT-116 colon
# K-562 leukemia = system: K-562 leukemia
# HOP-62 NSCLC = system: HOP-62 NSCLC
# COLO 205 colon = system: COLO 205 colon
# A549 NSCLC = system: A549 NSCLC
# SF-539 CNS = system: SF-539 CNS
# RPMI-8226 leukemia = system: RPMI-8226 leukemia
# CCRF-CEM leukemia = system: CCRF-CEM leukemia
# MDA-MB-231 breast = system: MDA-MB-231 breast
# BT-549 breast = system: BT-549 breast
# OVCAR-8 ovarian = system: OVCAR-8 ovarian
# UACC-62 melanoma = system: UACC-62 melanoma
# MALME-3M melanoma = system: MALME-3M melanoma
# SK-MEL-28 melanoma = system: SK-MEL-28 melanoma
# HL-60(TB) leukemia = system: HL-60(TB) leukemia
# SNB-19 CNS = system: SNB-19 CNS
# UO-31 renal = system: UO-31 renal
# U251 CNS = system: U251 CNS
# A498 renal = system: A498 renal
# NCI-H226 lung = system: NCI-H226 lung
# NCI-H522 lung = system: NCI-H522 lung
# LOX IMVI melanoma = system: LOX IMVI melanoma
# SK-MEL-2 melanoma = system: SK-MEL-2 melanoma
# CAKI-1 renal = system: CAKI-1 renal
# DU-145 prostate = system: DU-145 prostate
# HCT-15 colon = system: HCT-15 colon
# HS 578T breast = system: HS 578T breast
compound,measurement,setting,value
COc1cc(/C=C/C(=O)c2ccc(S(=O)(=O)NCCNc3nc(Nc4ccc(F)cc4)nc(N(C)C)n3)cc2)cc(OC)c1OC,GI50,ACHN renal,5.13 µM
same,TGI,ACHN renal,19.8 µM
same,GI50,SF-268 CNS,11.7 µM
same,TGI,SF-268 CNS,63.7 µM
same,GI50,EKVX NSCLC,4.85 µM
same,TGI,EKVX NSCLC,16.3 µM
same,GI50,NCI-H460 lung,5.12 µM
same,TGI,NCI-H460 lung,17.8 µM
same,GI50,HCC-2998 colon,1.62 µM
same,TGI,HCC-2998 colon,3 µM
same,GI50,RXF 393 renal,1.45 µM
same,TGI,RXF 393 renal,3.12 µM
same,GI50,SN12C renal,5.71 µM
same,TGI,SN12C renal,21.5 µM
same,GI50,MDA-MB-468 breast,2 µM
same,TGI,MDA-MB-468 breast,4.58 µM
same,GI50,OVCAR-3 ovarian,6.18 µM
same,TGI,OVCAR-3 ovarian,26.4 µM
same,GI50,MCF7 breast,1.96 µM
same,TGI,MCF7 breast,4.28 µM
same,GI50,IGROV1 ovarian,16.1 µM
same,TGI,IGROV1 ovarian,31 µM
same,GI50,MDA-MB-435,2.8 µM
same,TGI,MDA-MB-435,7.68 µM
same,GI50,OVCAR-4 ovarian,8.02 µM
same,TGI,OVCAR-4 ovarian,63.4 µM
same,GI50,SF-295 CNS,2.16 µM
same,TGI,SF-295 CNS,4.73 µM
same,GI50,UACC-257 melanoma,15.1 µM
same,TGI,UACC-257 melanoma,31.4 µM
same,GI50,HOP-92 NSCLC,11.5 µM
same,TGI,HOP-92 NSCLC,37.7 µM
same,GI50,T-47D breast,3.48 µM
same,TGI,T-47D breast,51.3 µM
same,GI50,SR leukemia,2.42 µM
same,TGI,SR leukemia,7.6 µM
same,GI50,SK-MEL-5 melanoma,3.39 µM
same,TGI,SK-MEL-5 melanoma,12.8 µM
same,GI50,NCI-H23 lung,3.03 µM
same,TGI,NCI-H23 lung,10.9 µM
same,GI50,PC-3 prostate,3.22 µM
same,TGI,PC-3 prostate,30.7 µM
same,GI50,SK-OV-3 ovarian,21.8 µM
same,TGI,SK-OV-3 ovarian,58.9 µM
same,GI50,786-0 renal,2.94 µM
same,TGI,786-0 renal,12 µM
same,GI50,OVCAR-5 ovarian,12.9 µM
same,TGI,OVCAR-5 ovarian,26.8 µM
same,GI50,HT29 colon,1.93 µM
same,TGI,HT29 colon,3.53 µM
same,GI50,SW-620 colon,1.95 µM
same,TGI,SW-620 colon,3.8 µM
same,GI50,M14 melanoma,3.28 µM
same,TGI,M14 melanoma,11.5 µM
same,GI50,NCI/ADR-RES ovarian,3.38 µM
same,TGI,NCI/ADR-RES ovarian,13.4 µM
same,GI50,TK-10 renal,13.1 µM
same,TGI,TK-10 renal,40.9 µM
same,GI50,HCT-116 colon,1.77 µM
same,TGI,HCT-116 colon,3.68 µM
same,GI50,K-562 leukemia,2.73 µM
same,TGI,K-562 leukemia,> 100 µM
same,GI50,HOP-62 NSCLC,14.1 µM
same,TGI,HOP-62 NSCLC,29 µM
same,GI50,COLO 205 colon,4.78 µM
same,TGI,COLO 205 colon,19.2 µM
same,GI50,A549 NSCLC,12.2 µM
same,TGI,A549 NSCLC,30.9 µM
same,GI50,SF-539 CNS,1.71 µM
same,TGI,SF-539 CNS,3.18 µM
same,GI50,RPMI-8226 leukemia,2.5 µM
same,TGI,RPMI-8226 leukemia,7.69 µM
same,GI50,CCRF-CEM leukemia,3.62 µM
same,TGI,CCRF-CEM leukemia,> 100 µM
same,GI50,MDA-MB-231 breast,4.41 µM
same,TGI,MDA-MB-231 breast,21 µM
same,GI50,BT-549 breast,2.25 µM
same,TGI,BT-549 breast,7.52 µM
same,GI50,OVCAR-8 ovarian,11.1 µM
same,TGI,OVCAR-8 ovarian,34.7 µM
same,GI50,UACC-62 melanoma,8.28 µM
same,TGI,UACC-62 melanoma,21.4 µM
same,GI50,MALME-3M melanoma,11.9 µM
same,TGI,MALME-3M melanoma,25.7 µM
same,GI50,SK-MEL-28 melanoma,6.13 µM
same,TGI,SK-MEL-28 melanoma,19.3 µM
same,GI50,HL-60(TB) leukemia,2.64 µM
same,TGI,HL-60(TB) leukemia,9.4 µM
same,GI50,SNB-19 CNS,11.2 µM
same,TGI,SNB-19 CNS,23.4 µM
same,GI50,UO-31 renal,4.45 µM
same,TGI,UO-31 renal,17 µM
same,GI50,U251 CNS,1.81 µM
same,TGI,U251 CNS,3.54 µM
same,GI50,A498 renal,11.3 µM
same,TGI,A498 renal,23.8 µM
same,GI50,NCI-H226 lung,4.47 µM
same,TGI,NCI-H226 lung,31.9 µM
same,GI50,NCI-H522 lung,6.45 µM
same,TGI,NCI-H522 lung,20.1 µM
same,GI50,LOX IMVI melanoma,1.71 µM
same,TGI,LOX IMVI melanoma,3.1 µM
same,GI50,SK-MEL-2 melanoma,13.5 µM
same,TGI,SK-MEL-2 melanoma,28.3 µM
same,GI50,CAKI-1 renal,5.2 µM
same,TGI,CAKI-1 renal,35.6 µM
same,GI50,DU-145 prostate,10.9 µM
same,TGI,DU-145 prostate,34.3 µM
same,GI50,HCT-15 colon,1.8 µM
same,TGI,HCT-15 colon,3.44 µM
same,GI50,HS 578T breast,8.24 µM
same,TGI,HS 578T breast,46.7 µM
